The record followed here is patent US20240368156A1, “2-AZABICYCLO[2.2.1]HEPTANE KRAS INHIBITORS” (INCYTE CORPORATION, priority 2023, published 2024).

The target in experiment [1] is KRAS G12D (Homo sapiens, UniProt P01116, G12D). The experiment can be described thus: GDP-GTP exchange assay (bodipy-GDP/GppNHp, SOS1), KRAS G12D. It counts as biochemical. As to conditions: 2.5 nM bodipy-loaded KRAS G12D, 4 h pre-incubation, 2 h reaction with GppNHp and SOS1; for certain compounds the most potent isomer is quoted; read-out: KRAS_G12D exchange assay IC50. On the procedure: (§1) The inhibitor potency of the exemplified compounds was determined in a fluorescence based guanine nucleotide exchange assay, which measures the exchange of bodipy-GDP (fluorescently labeled GDP) for GppNHp (Non-hydrolyzable GTP analog) to generate the active state of KRAS in the presence of SOS1 (guanine nucleotide exchange factor). Inhibitors were serially diluted in DMSO and a volume of 0.1 μL was transferred to the wells of a black low volume 384-well plate. 5 µL/well volume of bodipy-loaded KRAS G12D diluted to 2.5 nM in assay buffer (25 mM Hepes pH 7.5, 50 mM NaCl, 10 mM MgCl2 and 0.01% Brij-35) was added to the plate and pre-incubated with inhibitor for 4 h at r.t. Appropriate controls (enzyme with no inhibitor or with a G12D inhibitor) were included on the plate. The exchange was initiated by the addition of a 5 μL/well volume containing 1 mM GppNHp and 300 nM SOS1 in assay buffer. The 10 μL/well reaction concentration of the bodipy-loaded KRAS G12D, GppNHp, and SOS1 were 2.5 nM, 500 μM, and 150 nM, respectively. The reaction plates were incubated at r.t. for 2 h, a time estimated for complete GDP-GTP exchange in the absence of inhibitor. For the KRAS G12V mutant, similar guanine nucleotide exchange assays were used with 2.5 nM as final concentration for the bodipy loaded KRAS proteins and 3 h incubation after adding GppNHp-SOS1 mixture. A cyclic peptide described to selectively bind G12D mutant (Sakamoto et al., BBRC 484.3 (2017), 605-611) or internal compounds with confirmed binding were used as positive controls in the assay plates. Fluorescence intensities were measured on a PheraStar plate reader instrument (BMG Labtech) with excitation at 485 nm and emission at 520 nm.
(§2) Either GraphPad prism or Genedata Screener SmartFit was used to analyze the data. The IC50 values were derived by fitting the data to a four parameter logistic equation producing a sigmoidal dose-response curve with a variable Hill coefficient.
(§3) The symbol “†” indicates IC50≤100 nM, “††” indicates IC50>100 nM but ≤1 μM; and “†††” indicates IC50 is >1 μM but ≤5 μM, “††††” indicates IC50 is >5 µM but ≤10 μM. “NA” indicates IC50 not available.

In experiment [2] the target is KRAS G12V (Homo sapiens, UniProt P01116, G12V). The experiment is described as follows: GDP-GTP exchange assay (bodipy-GDP/GppNHp, SOS1), KRAS G12V. It counts as biochemical. As to conditions: 2.5 nM bodipy-loaded KRAS G12V, 3 h incubation after adding GppNHp-SOS1; for certain compounds the most potent isomer is quoted; read-out: KRAS_G12V exchange assay IC50. The method, then:
as §1, §2, §3

Sequence of KRAS G12D (P01116 1-188 isoform P01116-2 G12D): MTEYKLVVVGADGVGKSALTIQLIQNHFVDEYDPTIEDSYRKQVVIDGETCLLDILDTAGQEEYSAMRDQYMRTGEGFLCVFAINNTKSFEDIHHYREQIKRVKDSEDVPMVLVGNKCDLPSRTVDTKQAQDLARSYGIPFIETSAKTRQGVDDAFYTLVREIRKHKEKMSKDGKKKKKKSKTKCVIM
Sequence of KRAS G12V (P01116 1-188 isoform P01116-2 G12V): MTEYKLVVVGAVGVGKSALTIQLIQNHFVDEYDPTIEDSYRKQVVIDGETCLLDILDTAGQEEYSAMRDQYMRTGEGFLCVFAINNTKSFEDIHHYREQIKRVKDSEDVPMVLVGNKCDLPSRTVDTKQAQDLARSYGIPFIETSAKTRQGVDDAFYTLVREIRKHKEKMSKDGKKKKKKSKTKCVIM

By IC50 is commonly meant the point on the concentration scale where inhibition reaches its midpoint. Take `Cc1nc2c(F)c(-c3cccc(Cl)c3Cl)c(CCC#N)cc2c2c1cc([C@H]1[C@H]3C[C@H](C[C@@H]3Oc3ccncc3)N1C(=O)C1CC1)n2[C@H]1[C@H]2CN[C@@H]1C2` (atropisomer, axis not shown) [Example 31, 3-((R)-1-((1R,4R,5S)-2-azabicyclo[2.1.1]hexan-5-yl)-2-((1R,3R,4R,5S)-2-(cyclopropanecarbonyl)-5-(pyridin-4-yloxy)-2-azabicyclo[2.2.1]heptan-3-yl)-7-(2,3-dichlorophenyl)-6-fluoro-4-methyl-1H-pyrrolo[3,2-c]quinolin-8-yl)propanenitrile]: the IC50 in experiment [1] and in experiment [2] was at most 100 nM each time.
Regarding `C[C@@H](O)c1nc2c(F)c(-c3cccc(Cl)c3Cl)c(CCC#N)cc2c2c1cc([C@H]1[C@H]3C[C@H](C[C@@H]3F)N1C(=O)C1(F)CC1)n2[C@H]1[C@H]2CN[C@@H]1C2` (atropisomer, axis not shown) [Example 32, 3-((R)-1-((1R,4R,5S)-2-azabicyclo[2.1.1]hexan-5-yl)-7-(2,3-dichlorophenyl)-6-fluoro-2-((1R,3R,4R,5S)-5-fluoro-2-(1-fluorocyclopropane-1-carbonyl)-2-azabicyclo[2.2.1]heptan-3-yl)-4-((R)-1-hydroxyethyl)-1H-pyrrolo[3,2-c]quinolin-8-yl)propanenitrile], the 50% inhibitory concentration (IC50) in experiment [1] and in experiment [2] was at most 100 nM throughout.
With `C[C@@H](O)c1nc2c(F)c(-c3cccc(Cl)c3Cl)c(CCC#N)cc2c2c1cc([C@H]1[C@H]3C[C@H](C[C@H]3Cl)N1C(=O)C1(F)CC1)n2[C@H]1[C@H]2CN[C@@H]1C2` (atropisomer, axis not shown) [Example 33, 3-((R)-1-((1R,4R,5S)-2-azabicyclo[2.1.1]hexan-5-yl)-2-((1R,3R,4R,5R)-5-chloro-2-(1-fluorocyclopropane-1-carbonyl)-2-azabicyclo[2.2.1]heptan-3-yl)-7-(2,3-dichlorophenyl)-6-fluoro-4-((R)-1-hydroxyethyl)-1H-pyrrolo[3,2-c]quinolin-8-yl)propanenitrile], the 50% inhibitory concentration (IC50) in experiment [1] and in experiment [2] was at most 100 nM throughout.
With `CO[C@H]1C[C@H]2C[C@@H]1[C@H](c1cc3c(C)nc4c(F)c(-c5cccc(Cl)c5Cl)c(CCC#N)cc4c3n1[C@H]1[C@H]3CN[C@@H]1C3)N2C(=O)C1CC1` (atropisomer, axis not shown; (Ra)) [Example 1, 3-((Ra)-1-((1R,4R,5S)-2-Azabicyclo[2.1.1]hexan-5-yl)-2-((1R,3R,4R,5S)-2-(cyclopropanecarbonyl)-5-methoxy-2-azabicyclo[2.2.1]heptan-3-yl)-7-(2,3-dichlorophenyl)-6-fluoro-4-methyl-1H-pyrrolo[3,2-c]quinolin-8-yl)propanenitrile], the half-inhibitory concentration (IC50) in experiment [1] was at most 100 nM.
For `Cc1nc2c(F)c(-c3cccc(Cl)c3Cl)c(CCC#N)cc2c2c1cc([C@H]1[C@H]3C[C@H](C[C@@H]3F)N1C(=O)C1CC1)n2[C@H]1[C@H]2CN[C@@H]1C2` (atropisomer, axis not shown; (Ra)) [Example 2, 3-((Ra)-1-((1R,4R,5S)-2-Azabicyclo[2.1.1]hexan-5-yl)-2-((1R,3R,4R,5S)-2-(cyclopropanecarbonyl)-5-fluoro-2-azabicyclo[2.2.1]heptan-3-yl)-7-(2,3-dichlorophenyl)-6-fluoro-4-methyl-1H-pyrrolo[3,2-c]quinolin-8-yl)propanenitrile], the IC50 in experiment [1] and in experiment [2] was at most 100 nM throughout.
As for `Cc1nc2c(F)c(-c3cccc(Cl)c3Cl)c(CCC#N)cc2c2c1cc([C@H]1[C@H]3C[C@H]([C@@H]4C[C@@H]43)N1C(=O)C1CC1)n2[C@H]1[C@H]2CN[C@@H]1C2` (atropisomer, axis not shown; (Ra)) [Example 3, 3-((Ra)-1-((1R,4R,5S)-2-Azabicyclo[2.1.1]hexan-5-yl)-2-((1S,2S,4R,5R,7R)-6-(cyclopropanecarbonyl)-6-azatricyclo[3.2.1.0^2,4]octan-7-yl)-7-(2,3-dichlorophenyl)-6-fluoro-4-methyl-1H-pyrrolo[3,2-c]quinolin-8-yl)propanenitrile], the IC50 in experiment [1] and in experiment [2] was at most 100 nM in each case.
As for `[2H]C([2H])([2H])O[C@H]1C[C@H]2C[C@@H]1[C@H](c1cc3c(C)nc4c(F)c(-c5cccc(Cl)c5Cl)c(CCC#N)cc4c3n1[C@H]1[C@H]3CN[C@@H]1C3)N2C(=O)C1CC1` (atropisomer, axis not shown; (Ra)) [Example 4, 3-((Ra)-1-((1R,4R,5S)-2-Azabicyclo[2.1.1]hexan-5-yl)-2-((1R,3R,4R,5S)-2-(cyclopropanecarbonyl)-5-(methoxy-d3)-2-azabicyclo[2.2.1]heptan-3-yl)-7-(2,3-dichlorophenyl)-6-fluoro-4-methyl-1H-pyrrolo[3,2-c]quinolin-8-yl)propanenitrile], the IC50 in experiment [1] and in experiment [2] was at most 100 nM each time.
For `Cc1nc2c(F)c(-c3cccc(Cl)c3Cl)c(CCC#N)cc2c2c1cc([C@H]1[C@H]3C[C@H](C[C@@H]3Oc3cccnc3)N1C(=O)C1CC1)n2[C@H]1[C@H]2CN[C@@H]1C2` (atropisomer, axis not shown; (Ra)) [Example 5, 3-((Ra)-1-((1R,4R,5S)-2-Azabicyclo[2.1.1]hexan-5-yl)-2-((1R,3R,4R,5S)-2-(cyclopropanecarbonyl)-5-(pyridin-3-yloxy)-2-azabicyclo[2.2.1]heptan-3-yl)-7-(2,3-dichlorophenyl)-6-fluoro-4-methyl-1H-pyrrolo[3,2-c]quinolin-8-yl)propanenitrile], the IC50 in experiment [1] and in experiment [2] was at most 100 nM throughout.
With `Cc1nc2c(F)c(-c3cccc(Cl)c3Cl)c(CCC#N)cc2c2c1cc([C@H]1[C@H]3C[C@H](C[C@@H]3OCc3ccccc3)N1C(=O)C1CC1)n2[C@H]1[C@H]2CN[C@@H]1C2` (atropisomer, axis not shown; (Ra)) [Example 6, 3-((Ra)-2-((1R,3R,4R,5S)-5-(Benzyloxy)-2-(cyclopropanecarbonyl)-2-azabicyclo[2.2.1]heptan-3-yl)-1-((1R,4R,5S)-2-azabicyclo[2.1.1]hexan-5-yl)-7-(2,3-dichlorophenyl)-6-fluoro-4-methyl-1H-pyrrolo[3,2-c]quinolin-8-yl)propanenitrile], the IC50 in experiment [1] and in experiment [2] was at most 100 nM each time.
Turning to `Cc1nc2c(F)c(-c3cccc(Cl)c3Cl)c(CCC#N)cc2c2c1cc([C@H]1[C@H]3C[C@H](C[C@@H]3OC(F)F)N1C(=O)C1CC1)n2[C@H]1[C@H]2CN[C@@H]1C2` (atropisomer, axis not shown; (Ra)) [Example 7, 3-((Ra)-1-((1R,4R,5S)-2-Azabicyclo[2.1.1]hexan-5-yl)-2-((1R,3R,4R,5S)-2-(cyclopropanecarbonyl)-5-(difluoromethoxy)-2-azabicyclo[2.2.1]heptan-3-yl)-7-(2,3-dichlorophenyl)-6-fluoro-4-methyl-1H-pyrrolo[3,2-c]quinolin-8-yl)propanenitrile], the IC50 in experiment [1] and in experiment [2] was at most 100 nM throughout.
For the compound `Cc1nc2c(F)c(-c3cccc(Cl)c3Cl)c(CCC#N)cc2c2c1cc([C@H]1[C@H]3C[C@H](C[C@@H]3C(F)F)N1C(=O)C1CC1)n2[C@H]1[C@H]2CN[C@@H]1C2` (atropisomer, axis not shown; (Ra)) [Example 9, 3-((Ra)-1-((1R,4R,5S)-2-Azabicyclo[2.1.1]hexan-5-yl)-2-((1R,3R,4S,5S)-2-(cyclopropanecarbonyl)-5-(difluoromethyl)-2-azabicyclo[2.2.1]heptan-3-yl)-7-(2,3-dichlorophenyl)-6-fluoro-4-methyl-1H-pyrrolo[3,2-c]quinolin-8-yl)propanenitrile], the IC50 in experiment [1] and in experiment [2] was at most 100 nM in each case.
With `Cc1nc2c(F)c(-c3cccc(Cl)c3Cl)c(CCC#N)cc2c2c1cc([C@H]1[C@H]3C[C@H](C[C@@H]3OC(F)F)N1C(=O)C1(F)CC1)n2[C@H]1[C@H]2CN[C@@H]1C2` [Example 35, 3-(1-((1R,4R,5S)-2-Azabicyclo[2.1.1]hexan-5-yl)-7-(2,3-dichlorophenyl)-2-((1R,3R,4R,5S)-5-(difluoromethoxy)-2-(1-fluorocyclopropane-1-carbonyl)-2-azabicyclo[2.2.1]heptan-3-yl)-6-fluoro-4-methyl-1H-pyrrolo[3,2-c]quinolin-8-yl)propanenitrile], the IC50 in experiment [1] is at most 100 nM.
